Assay in all cases: AK assay 384-well format, Prestwick library screening
In one experiment the test system is E. cloacae. The experiment is classed as cell-based, Enterobacter cloacae. The following applies: for fold induction at 50 µM: Enterobacter cloacae, 3 h; for AK-based Prestwick Library Screening Results, E. cloacae (fold increase in extracellular AK activity): cutoff for positive 3-fold increase.
The next experiment relates to K. pneumoniae. In kind it is cell-based, Klebsiella pneumoniae. The conditions noted are these: for fold induction at 50 µM: Klebsiella pneumoniae, 3 h; for AK-based Prestwick Library Screening Results, K. pneumoniae (fold increase in extracellular AK activity): cutoff for positive 3-fold increase.
The test system of experiment [1] is S. aureus strain USA300-0114. The experiment is classed as cell-based, Staphylococcus aureus. The conditions noted are these: for fold induction at 50 µM: Staphylococcus aureus, USA300, 3 h; for AK-based Prestwick Library Screening Results, S. aureus (fold increase in extracellular AK activity): cutoff for positive 3-fold increase.
In another experiment the test system is E. coli. In kind it is cell-based, Escherichia coli. The following applies: 50 μM final drug concentration; for fold induction at 50 µM: Escherichia coli, 3 h; for AK-based Prestwick Library Screening Results, E. coli (fold increase in extracellular AK activity): cutoff for positive 3-fold increase.
Experiment [2] concerns A. baumannii strain 98-37-09. The experiment is classed as cell-based, Acinetobacter baumannii. The conditions noted are these: for fold induction at 50 µM: Acinetobacter baumannii, 983709, 3 h; for AK-based Prestwick Library Screening Results, A. baumannii (fold increase in extracellular AK activity): cutoff for positive 3-fold increase.
For a further experiment, the system named is E. faecium. The experiment is classed as cell-based, Enterococcus faecium. The following applies: for fold induction at 50 µM: Enterococcus faecium, 3 h; for AK-based Prestwick Library Screening Results, E. faecium (fold increase in extracellular AK activity): cutoff for positive 3-fold increase.
The subject of another experiment is P. aeruginosa. In kind it is cell-based, Pseudomonas aeruginosa. The following applies: for fold induction at 50 µM: Pseudomonas aeruginosa, 3 h; for AK-based Prestwick Library Screening Results, P. aeruginosa (fold increase in extracellular AK activity): cutoff for positive 3-fold increase.
Where [3] appears, read: 50 μM final drug concentration, 384-well format, cutoff for positive-scoring molecules 3-fold increase, read-out: AK-based Prestwick Library Screening Results, E. cloacae (increase in extracellular AK activity).
Where [4] appears, read: 50 μM final drug concentration, 384-well format, cutoff for positive-scoring molecules 3-fold increase, read-out: AK-based Prestwick Library Screening Results, K. pneumoniae (increase in extracellular AK activity).
The mark [5] stands for this setting: 50 μM final drug concentration, 384-well format, cutoff for positive-scoring molecules 3-fold increase, read-out: AK-based Prestwick Library Screening Results, S. aureus (increase in extracellular AK activity).
Setting [6] is: 384-well format, cutoff for positive-scoring molecules 3-fold increase, read-out: AK-based Prestwick Library Screening Results, E. coli (increase in extracellular AK activity).
[7] abbreviates: 50 μM final drug concentration, 384-well format, cutoff for positive-scoring molecules 3-fold increase, read-out: AK-based Prestwick Library Screening Results, A. baumannii (increase in extracellular AK activity).
[8] abbreviates: 50 μM final drug concentration, 384-well format, cutoff for positive-scoring molecules 3-fold increase, read-out: AK-based Prestwick Library Screening Results, E. faecium (increase in extracellular AK activity).
Setting [9] is: 50 μM final drug concentration, 384-well format, cutoff for positive-scoring molecules 3-fold increase, read-out: AK-based Prestwick Library Screening Results, P. aeruginosa (increase in extracellular AK activity).
[10] abbreviates: 50 μM final drug concentration, planktonic.
Where [11] appears, read: 50 μM final drug concentration, cutoff for positive-scoring molecules 3-fold increase, read-out: AK-based Prestwick Library Screening Results, E. cloacae (fold increase in extracellular AK activity).
The mark [12] stands for this setting: 50 μM final drug concentration, cutoff for positive-scoring molecules 3-fold increase, read-out: AK-based Prestwick Library Screening Results, K. pneumoniae (fold increase in extracellular AK activity).
Where [13] appears, read: 50 μM final drug concentration, cutoff for positive-scoring molecules 3-fold increase, read-out: AK-based Prestwick Library Screening Results, S. aureus (fold increase in extracellular AK activity).
[14] abbreviates: cutoff for positive-scoring molecules 3-fold increase, read-out: AK-based Prestwick Library Screening Results, E. coli (fold increase in extracellular AK activity).
[15] abbreviates: 50 μM final drug concentration, cutoff for positive-scoring molecules 3-fold increase, read-out: AK-based Prestwick Library Screening Results, A. baumannii (fold increase in extracellular AK activity).
[16] abbreviates: 50 μM final drug concentration, cutoff for positive-scoring molecules 3-fold increase, read-out: AK-based Prestwick Library Screening Results, E. faecium (fold increase in extracellular AK activity).
Setting [17] is: 50 μM final drug concentration, cutoff for positive-scoring molecules 3-fold increase, read-out: AK-based Prestwick Library Screening Results, P. aeruginosa (fold increase in extracellular AK activity).

The text below walks through data of patent US10004701B2, “Methods and compositions for treating infection” (UNIVERSITY OF ROCHESTER, priority 2012, dated 2018).

Counter-ions that a name gives are not always drawn. Like-named read-outs stand apart in the source and are kept apart here.

In the case of `COc1nc(C)nc(Cl)c1N=C1NCCN1` [Moxonidine], the fold induction at 50 µM in the experiment on E. cloacae (planktonic E. cloacae, 50 μM final drug concentration, positive cutoff 3-fold increase, read-out: AK-based Prestwick library screening result, E. cloacae (fold increase in extracellular AK activity)) stood at 1.8; in the experiment with K. pneumoniae (planktonic K. pneumoniae, 50 μM final drug concentration, positive cutoff 3-fold increase, read-out: AK-based Prestwick library screening result, K. pneumoniae (fold increase in extracellular AK activity)) it was 1.1; in experiment [1] (planktonic S. aureus, 50 μM final drug concentration, positive cutoff 3-fold increase, read-out: AK-based Prestwick library screening result, S. aureus (fold increase in extracellular AK activity)), 1; with E. coli (planktonic E. coli, positive cutoff 3-fold increase, read-out: AK-based Prestwick library screening result, E. coli (fold increase in extracellular AK activity)), 1.1; in experiment [2] (planktonic A. baumannii, 50 μM final drug concentration, positive cutoff 3-fold increase, read-out: AK-based Prestwick library screening result, A. baumannii (fold increase in extracellular AK activity)) it was 1.1; in the experiment on E. faecium (planktonic E. faecium, 50 μM final drug concentration, positive cutoff 3-fold increase, read-out: AK-based Prestwick library screening result, E. faecium (fold increase in extracellular AK activity)), 0.9. For the same compound, the fold induction at 50 µM with P. aeruginosa (planktonic P. aeruginosa, 50 μM final drug concentration, positive cutoff 3-fold increase, read-out: AK-based Prestwick library screening result, P. aeruginosa (fold increase in extracellular AK activity)) was found to be 1.1.

Take `CC1=C(/C=C/C(C)=C/C=C/C(C)=C/C(=O)O)C(C)(C)CCC1` [Retinoic acid]: the fold induction at 50 µM came out at 0.9 in the experiment with E. cloacae (setting [3]); 0.6 in the experiment with K. pneumoniae (setting [4]); 0.8 in experiment [1] (setting [5]); 0.7 in the experiment with E. coli (setting [6]); 0.8 in experiment [2] (setting [7]); 1 in the experiment on E. faecium (setting [8]). In addition, in the experiment on P. aeruginosa (setting [9]), the fold induction at 50 µM was found to be 0.7.

For `COc1cc2c(cc1O)[C@@H]1Cc3ccc(OC)c(O)c3CN1CC2` [Scoulerine], the fold induction at 50 µM in the experiment with E. cloacae (50 μM final drug concentration, planktonic, […], read-out: AK-based Prestwick Library Screening Results, E. cloacae (fold increase in extracellular AK activity)) worked out at 1.6; in the experiment on K. pneumoniae (50 μM final drug concentration, planktonic, […], read-out: AK-based Prestwick Library Screening Results, K. pneumoniae (fold increase in extracellular AK activity)) it was 1; in experiment [1] (50 μM final drug concentration, planktonic, […], read-out: AK-based Prestwick Library Screening Results, S. aureus (fold increase in extracellular AK activity)) it was 1; in the experiment with E. coli (planktonic, […], read-out: AK-based Prestwick Library Screening Results, E. coli (fold increase in extracellular AK activity)) it was 1.2; in experiment [2] (50 μM final drug concentration, planktonic, […], read-out: AK-based Prestwick Library Screening Results, A. baumannii (fold increase in extracellular AK activity)), 1.3; in the experiment with E. faecium (50 μM final drug concentration, planktonic, […], read-out: AK-based Prestwick Library Screening Results, E. faecium (fold increase in extracellular AK activity)), 1. The fold induction at 50 µM with P. aeruginosa (50 μM final drug concentration, planktonic, […], read-out: AK-based Prestwick Library Screening Results, P. aeruginosa (fold increase in extracellular AK activity)) was determined as 1.1.

Regarding `CS(=N)(=O)CC[C@H](N)C(=O)O` (stereo partly drawn) [Methionine sulfoximine (L)], the “AK-based Prestwick Library Screening Results, E. cloacae (fold increase in extracellular AK activity)” value in the experiment with E. cloacae (setting [10]) was determined as 1.5. Moreover, the “AK-based Prestwick Library Screening Results, K. pneumoniae (fold increase in extracellular AK activity)” value in the experiment on K. pneumoniae (setting [10]) amounted to 0.9. Moreover, the “AK-based Prestwick Library Screening Results, S. aureus (fold increase in extracellular AK activity)” value in experiment [1] (setting [10]) is 1.1. For the same compound, in the experiment on E. coli (planktonic), the “AK-based Prestwick Library Screening Results, E. coli (fold increase in extracellular AK activity)” value was 1.3. The “AK-based Prestwick Library Screening Results, A. baumannii (fold increase in extracellular AK activity)” value in experiment [2] (setting [10]) was determined as 1.0. Besides, the “AK-based Prestwick Library Screening Results, E. faecium (fold increase in extracellular AK activity)” value in the experiment with E. faecium (setting [10]) is 1.0. For the same compound, the “AK-based Prestwick Library Screening Results, P. aeruginosa (fold increase in extracellular AK activity)” value with P. aeruginosa (setting [10]) was 1.2.

In the case of (S)-(−)-Atenolol, the “AK-based Prestwick Library Screening Results, E. cloacae (fold increase in extracellular AK activity)” value in the experiment with E. cloacae (setting [10]) came to 1.7. For the same compound, the “AK-based Prestwick Library Screening Results, K. pneumoniae (fold increase in extracellular AK activity)” value in the experiment on K. pneumoniae (setting [10]) was 0.9. Moreover, the “AK-based Prestwick Library Screening Results, S. aureus (fold increase in extracellular AK activity)” value in experiment [1] (setting [10]) is reported as 1.2. For the same compound, the “AK-based Prestwick Library Screening Results, E. coli (fold increase in extracellular AK activity)” value with E. coli (planktonic) was determined as 1.2. Moreover, the “AK-based Prestwick Library Screening Results, A. baumannii (fold increase in extracellular AK activity)” value in experiment [2] (setting [10]) was determined as 1.1. For the same compound, the “AK-based Prestwick Library Screening Results, E. faecium (fold increase in extracellular AK activity)” value with E. faecium (setting [10]) was 1.0. Moreover, the “AK-based Prestwick Library Screening Results, P. aeruginosa (fold increase in extracellular AK activity)” value in the experiment on P. aeruginosa (setting [10]) was found to be 1.1.

`CCn1nc(C(=O)O)c(=O)c2cc3c(cc21)OCO3` [Cinoxacin]: the fold induction at 50 µM with E. cloacae (setting [11]) amounted to 1.4; with K. pneumoniae (setting [12]), 2.1; in experiment [1] (setting [13]), 1.3; in the experiment with E. coli (setting [14]), 10.3; in experiment [2] (setting [15]), 1.3; in the experiment with E. faecium (setting [16]), 1.1. In addition, the fold induction at 50 µM in the experiment on P. aeruginosa (setting [17]) stood at 1.2.

For the compound `CC(C(=O)O)c1cccc(C(=O)c2ccccc2)c1` (stereo not drawn) [Ketoprofen], the fold induction at 50 µM in the experiment on E. cloacae (read-out: AK-based Prestwick Library Screening Results: E. cloacae (increase in extracellular AK activity)) turned out to be 1.5; in the experiment on K. pneumoniae (read-out: AK-based Prestwick Library Screening Results: K. pneumoniae (increase in extracellular AK activity)) it was 1.1; in experiment [1] (read-out: AK-based Prestwick Library Screening Results: S. aureus (increase in extracellular AK activity)), 1; in the experiment with E. coli (planktonic E. coli, 384-well, […], read-out: AK-based Prestwick Library Screening Results: E. coli (increase in extracellular AK activity)) it was 1.1; in experiment [2] (read-out: AK-based Prestwick Library Screening Results: A. baumannii (increase in extracellular AK activity)) it was 1; in the experiment with E. faecium (read-out: AK-based Prestwick Library Screening Results: E. faecium (increase in extracellular AK activity)), 0.9. In addition, the fold induction at 50 µM with P. aeruginosa (read-out: AK-based Prestwick Library Screening Results: P. aeruginosa (increase in extracellular AK activity)) worked out at 1.

Take `CCCNC(C)C(=O)Nc1ccccc1C` (stereo not drawn) [Prilocaine hydrochloride]: the fold induction at 50 µM came to 1.3 in the experiment on E. cloacae (setting [3]); 0.7 in the experiment with K. pneumoniae (setting [4]); 0.8 in experiment [1] (setting [5]); 0.9 in the experiment with E. coli (setting [6]); 0.9 in experiment [2] (setting [7]); 0.9 in the experiment on E. faecium (setting [8]). For the same compound, the fold induction at 50 µM in the experiment with P. aeruginosa (setting [9]) turned out to be 0.9.

`CCN(CC)CCNC(=O)c1cc(Br)c(N)cc1OC` [Bromopride]: the fold induction at 50 µM in the experiment on E. cloacae (setting [11]) was found to be 1.3; in the experiment on K. pneumoniae (setting [12]) it was 1; in experiment [1] (setting [13]) it was 1.3; in the experiment with E. coli (setting [14]), 1.3; in experiment [2] (setting [15]) it was 1.3; in the experiment with E. faecium (setting [16]) it was 0.9. Further, the fold induction at 50 µM with P. aeruginosa (setting [17]) amounted to 1.1.
